From patent publication US9732094B2, “Arylquinazolines” (Merck Patent GmbH, priority 2013, dated 2017)
Where two headings read alike, the source gives them in different places.

Legend:
[1] = target: DNA-PK phosphorylation at serine 2056 (Homo sapiens (Human), UniProt P78527); assay: DNA-PK phosphorylation at serine 2056 (cellular), bleomycin-treated HCT116 cells, ELISA; format: cell-based; conditions: read-out: IC50 pDNA-PK
Outline: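 After overnight seeding, HCT116 cells received compound with 10 μM bleomycin for 6 h; phospho-DNA-PK ELISA signals were scaled to total DNA-PKcs, DMSO serving as blank.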

DNA-PK = DNA-PK (Homo sapiens (Human), UniProt P78527); assay: DNA-PK assay (biochemical), flashplate 33P-ATP kinase assay
Outline: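 Reactions ran in streptavidin-coated flashplates and were halted by 200 mM EDTA, with a further 30 min at room temperature before saline washing.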

Kv11.1 (hERG) [2] = target: T1, Kv11.1 (hERG) (Homo sapiens (Human), UniProt Q12809); assay: Kv11.1 ion channel binding assay (Predictor hERG fluorescence polarisation); conditions: cells marked *: measured using hERG binding assay instead of hERG patch clamp assay; read-out: Ki [Kv1.11 hERG]
T1 sequence (Q12809 whole entry): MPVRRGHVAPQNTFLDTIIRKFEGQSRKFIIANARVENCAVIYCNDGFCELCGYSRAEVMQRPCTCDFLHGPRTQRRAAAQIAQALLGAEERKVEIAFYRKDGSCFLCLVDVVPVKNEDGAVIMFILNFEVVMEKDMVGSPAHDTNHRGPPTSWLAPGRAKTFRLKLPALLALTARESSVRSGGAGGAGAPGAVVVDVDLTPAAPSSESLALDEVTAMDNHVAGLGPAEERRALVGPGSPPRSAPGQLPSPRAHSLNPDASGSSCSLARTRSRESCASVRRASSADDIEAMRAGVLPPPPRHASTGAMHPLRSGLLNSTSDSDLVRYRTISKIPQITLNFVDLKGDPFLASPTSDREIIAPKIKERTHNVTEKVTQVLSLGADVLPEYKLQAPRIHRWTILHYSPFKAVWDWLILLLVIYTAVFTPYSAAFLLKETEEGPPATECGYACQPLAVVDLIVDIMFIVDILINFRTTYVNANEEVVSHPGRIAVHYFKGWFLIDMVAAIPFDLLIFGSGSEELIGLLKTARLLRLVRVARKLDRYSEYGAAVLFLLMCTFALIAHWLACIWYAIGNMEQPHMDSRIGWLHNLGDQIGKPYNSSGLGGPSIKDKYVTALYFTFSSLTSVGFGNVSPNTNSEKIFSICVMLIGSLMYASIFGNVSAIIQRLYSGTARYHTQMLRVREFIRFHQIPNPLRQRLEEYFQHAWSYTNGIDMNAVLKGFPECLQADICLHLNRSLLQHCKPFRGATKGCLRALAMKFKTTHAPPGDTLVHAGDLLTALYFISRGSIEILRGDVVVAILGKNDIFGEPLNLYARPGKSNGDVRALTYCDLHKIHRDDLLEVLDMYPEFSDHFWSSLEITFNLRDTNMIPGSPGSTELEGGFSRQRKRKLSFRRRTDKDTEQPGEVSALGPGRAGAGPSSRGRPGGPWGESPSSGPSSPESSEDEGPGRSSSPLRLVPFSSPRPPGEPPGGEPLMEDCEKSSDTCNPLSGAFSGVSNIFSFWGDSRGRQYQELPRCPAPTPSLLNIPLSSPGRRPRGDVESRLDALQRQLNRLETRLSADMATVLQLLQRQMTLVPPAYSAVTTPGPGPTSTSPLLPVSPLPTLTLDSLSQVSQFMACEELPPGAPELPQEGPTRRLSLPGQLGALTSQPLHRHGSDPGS
Method: D) Kv11.1 Ion Channel Binding Assay
Kv11.1 (hERG=human ether a go-go related […]) is a cardiac K^+ channel which should if possible not interact with the test substances. This interaction is determined quantitatively with the aid of the Predictor™ hERG Fluorescence Polarizations (FP) Assays from Life Technologies. In the case of this assay principle, cardiomyocyte cell membranes having a certain proportion of Kv11.1 channels are isolated. A dye-labelled Kv11.1 binding partner gives a high fluorescence polarisation signal by interaction with the Kv11.1. In the case of displacement of the dye, a reduction in the fluorescence polarisation signal occurs.
The assay is carried out automatically as follows: 15 nl of the test substances (highest concentration: 10 mM, 10 concentrations: dilution factors 1:3.16, DMSO) are transferred into an empty microtitre plates having 384 wells by means of an acoustic pipetter. 3 μl of the isolated membranes are subsequently added. Membranes and test substances are incubated at 22° C. for 15 min (+/−5 min). In the next step, the dye-labelled binding partner is added, followed by incubation at 22° C. After incubation for two hours, the measurement of the fluorescence polarisation is carried out on an Envision multimode Reader. Measured raw data are standardised with the aid of Genedata Assay Analyzer. The 1050 and % effect values are calculated in Genedata Condoseo.

Kv11.1 (hERG) [3] = target: T1, Kv11.1 (hERG); assay: Kv11.1 (hERG) ion channel activity (patch clamp assay), HEK293 cells transfected with hERG gene
[4] = cellular DNA-PK phosphorylation at serine 2056, HCT116
[5] = cellular, HCT116 cells, 10 μM bleomycin, six hours
[6] = Ki [Kv1.11 hERG], patch clamp, HEK293 transfected with hERG gene
[7] = read-out: Ki [Kv1.11 hERG], hERG patch clamp assay (cells without asterisk)

IC50 [1, 4] [nM] | IC50 (DNA-PK; biochemical DNA-PK assay) [nM] | SMILES | Ki (Kv11.1 (hERG) [2]) [nM] | other results
< 500 | < 3 | COc1nccnc1C(O)c1ccc(F)c(-c2ncnc3cc(N4CCOCC4)cc(F)c23)c1 (stereo not drawn) [Example 267, [4-Fluoro-3-(5-fluoro-7-morpholin-4-yl-quinazolin-4-yl)-phenyl]-(3-methoxy-pytazin-2-yl)-methanol] | > 25000 | –
5000 to 10000 | 3 to 7 | Cc1nccnc1C(C(N)=O)c1ccc(F)c(-c2ncnc3cc(N4CCOCC4)sc23)c1 (stereo not drawn) [Example 270, 2-[4-Fluoro-3-(6-morpholin-4-yl-thieno[3,2-d}-pyrimidin-4-yl)-phenyl]-2-(3-methyl-pyrazin-2-yl)-acetamide] | > 25000 | –
500 to 5000 | 3 to 7 | Cc1nccnc1C(O)c1ccc(F)c(-c2ncnc3cc(N4CCOCC4)sc23)c1 (stereo not drawn) [Example 246, [4-Fluoro-3-(6-morpholin-4-yl-thieno[3,2-d}-pyrimidin-4-yl)-phenyl]-(3-methyl-pyrazin-2-yl)-methanol] | > 25000 | –
< 500 | < 3 | Cc1nccnc1C(O)c1cc(-c2ncnc3cc(N4CCOCC4)sc23)c(F)cc1Cl (stereo not drawn) [Example 264, [2-Chloro-4-fluoro-5-(6-morpholin-4-yl-thieno[3,2-d}-pyrimidin-4-yl)-phenyl]-(3-methyl-pyrazin-2-yl)-methanol] | > 25000 | –
< 500 | < 3 | Cc1nccnc1C(O)c1ccc(F)c(-c2ncnc3cc(N4CCOCC4)cc(F)c23)c1 (stereo not drawn) [Example 268, [4-Fluoro-3-(5-fluoro-7-morpholin-4-ylquinazolin-4-yl)phenyl]-(3-methylpyrazin-2-yl)methanol] | > 25000 | –
10000 to 30000 | > 30 | COc1ccc(C(O)c2ccc(F)c(-c3ncnc4cc(N5CCOCC5)c(F)cc34)c2)nn1 (stereo not drawn) [Example 282, [4-Fluoro-3-(6-fluoro-7-morpholin-4-yl-quinazolin-4-yl)-phenyl]-(6-methoxy-pyridazin-3-yl)-methanol] | > 25000 | –
10000 to 30000 | 7 to 30 | COc1ccc(C(O)c2cc(-c3ncnc4cc(N5CCOCC5)cc(F)c34)c(F)cc2Cl)nn1 (single isomer, unassigned) [Example 263, [2-Chloro-4-fluoro-5-(5-fluoro-7-morpholin-4-yl-quinazolin-4-yl)-phenyl]-(6-methoxy-pyridazin-3-yl)-methanol] | > 25000 | –
– | > 30 | COC(c1ccc(F)c(-c2ncnc3cc(N4CCOCC4)ccc23)c1)c1nccnc1C (stereo not drawn) [Example 352, 4-{2-Fluoro-5-[methoxy-(3-methyl-pyrazin-2-yl)methyl]-phenyl}-7-morpholin-4-ylquinazoline] | > 25000 | –
< 500 | < 3 | COc1ccc(C(O)c2cc(-c3ncnc4cc(N5CCOCC5)cc(F)c34)c(F)cc2Cl)nn1 (stereo not drawn) [Example 278, [2-chloro-4-fluoro-5-(5-fluoro-7-morpholin-4-ylquinazolin-4-yl)phenyl]-(6-methoxypyridazin-3-yl)methanol] | > 25000 | –
< 500 | < 3 | OC(c1ccc(F)c(-c2ncnc3cc(N4CCOCC4)ccc23)c1)c1ncnc2sccc12 (stereo not drawn) [Example 437, [4-Fluoro-3-(7-morpholin-4-yl-quinazolin-4-yl)-phenyl]thieno[2,3-d}-pyrimidin-4-yl-methanol] | – | Ki (Kv11.1 (hERG) [3]; Ki [Kv1.11 hERG], hERG patch clamp assay (cells without asterisk)): 10000 to 15000 nM

Second part, the molecule before the results:

SMILES | IC50 [1, 4] [nM] | IC50 (DNA-PK; biochemical DNA-PK assay) [nM] | Ki (Kv11.1 (hERG) [2]) [nM] | other results
[2H]C1([2H])OC([2H])([2H])C([2H])([2H])N(c2ccc3c(-c4cc(C(O)c5nccnc5OC)c(Cl)cc4F)ncnc3c2)C1([2H])[2H] (stereo not drawn) [Example 258, [2-Chloro-4-fluoro-5-[7-(2,2,3,3,5,5,6,6-octadeutenomorpholin-4-yl)quinazolin-4-yl]phenyl]-(3-methoxypyrazin-2-yl)methanol] | < 500 | 3 to 7 | > 25000 | –
COc1nnc(Cl)cc1C(O)c1ccc(F)c(-c2ncnc3cc(N4CCOCC4)ccc23)c1 (stereo not drawn) [Example 286, (6-Chloro-3-methoxy-pyridazin-4-yl)-[4-fluoro-3-(7-morpholin-4-yl-quinazolin-4-yl)-phenyl]methanol] | 5000 to 10000 | 7 to 30 | > 25000 | –
CNC(=O)C(c1ccc(F)c(-c2ncnc3cc(N4CCOCC4)ccc23)c1)c1ncccc1Cl (stereo not drawn) [Example 230, 2-(3-Chloro-pyridin-2-yl)-2-[4-fluoro-3-(7-morpholin-4-yl-quinazolin-4-yl)-phenyl]-N-methyl-acetamide] | 5000 to 10000 | 7 to 30 | 15000 to 25000 | –
CN1N=C(C(O)c2cc(-c3ncnc4cc(N5CCOCC5)ccc34)c(F)cc2Cl)CCC1=O (stereo not drawn) [Example 288, 6-{[2-Chloro-4-fluoro-5-(7-morpholin-4-yl-quinazolin-4-yl)-phenyl]hydroxy-methyl}-2-methyl-4,5-dihydro-2H-pyridazin-3-one] | 5000 to 10000 | 7 to 30 | > 25000 | –
COc1ccc(C(O)c2ccc(F)c(-c3ncnc4cc(N5CCOCC5)cc(F)c34)c2)nn1 (stereo not drawn) [Example 255, [4-Fluoro-3-(5-fluoro-7-morpholin-4-yl-quinazolin-4-yl)-phenyl]-(6-methoxy-pyridazin-3-yl)-methanol] | < 500 | 7 to 30 | > 25000 | –
COc1ccc(C(O)c2cc(-c3ncnc4cc(N5CCOCC5)ccc34)ccc2Cl)nn1 (stereo not drawn) [Example 460, [2-Chloro-5-(7-morpholin-4-yl-quinazolin-4-yl)-phenyl]-(6-methoxy-pyridazin-3-yl)-methanol] | < 500 | 3 to 7 | > 25000 | –
CNC(=O)C(c1ccc2nccn2n1)c1cc(-c2ncnc3cc(N4CCOCC4)ccc23)c(F)cc1Cl (stereo not drawn) [Example 236, 2-[2-Chloro-4-fluoro-5-(7-morpholin-4-yl-quinazolin-4-yl)-phenyl]-2-imidazo-[1,2-b]pyridazin-6-yl-N-methylacetamide] | 5000 to 10000 | > 30 | > 25000 | –
[2H]C1([2H])OC([2H])([2H])C([2H])([2H])N(c2ccc3c(-c4cc(C(O)c5ccc(OC)nn5)c(Cl)cc4F)ncnc3c2)C1([2H])[2H] (single isomer, unassigned) [Example 262, [2-Chloro-4-fluoro-5-[7-(2,2,3,3,5,5,6,6-octadeuteriomorpholin-4-yl)quinazolin-4-yl]phenyl]-(6-methoxypyridazin-3-yl)methanol] | – | – | > 25000 | –
OC(c1ccc2nccn2n1)c1cc(-c2ncnc3cc(N4CCOCC4)ccc23)c(F)cc1Cl (stereo not drawn) [Example 56, [2-Chloro-4-fluoro-5-(7-morpholin-4-yl-quinazolin-4-yl)phenyl]-imidazo[1,2-b]pyridazin-6-ylmethanol] | – | – | – | IC50 [1, 5]: 500 to 5000 nM; IC50 (DNA-PK; enzymatic, 5 μM ATP): 3 to 7 nM; Ki (Kv11.1 (hERG) [3]; [6]): 10000 to 15000 nM
Cc1cncnc1C(O)c1cc(-c2ncnc3cc(N4CCOCC4)ccc23)ccc1Cl (stereo not drawn) [Example 419, [2-Chloro-5-(7-morpholin-4-yl-quinazolin-4-yl)-phenyl]-(5-methyl-pyrimidin-4-yl)-methanol] | 500 to 5000 | 7 to 30 | – | Ki (Kv11.1 (hERG) [3]; [7]): 15000 to 25000 nM
OC(c1ccc(OCC(F)(F)F)nn1)c1cc(-c2ncnc3cc(N4CCOCC4)ccc23)c(F)cc1Cl (stereo not drawn) [Example 115, [2-Chloro-4-fluoro-5-(7-morpholin-4-yl-quinazolin-4-yl)-phenyl]-[6-(2,2,2-trifluoroethoxy)-pyridazin-3-yl]-methanol] | – | – | – | IC50 [1, 5]: 500 to 5000 nM; IC50 (DNA-PK; enzymatic, 5 μM ATP): 3 to 7 nM; Ki (Kv11.1 (hERG) [3]; [6]): 10000 to 15000 nM
COc1ccc(C(O)c2cc(-c3ncnc4cc(N5CCOCC5)cnc34)c(F)cc2Cl)nn1 (stereo not drawn) [Example 257, [2-Chloro-4-fluoro-5-(7-morpholin-4-yl-pyrido[3,2-d}-pyrimidin-4-yl)-phenyl]-(6-methoxy-pyridazin-3-yl)-methanol] | 500 to 5000 | 3 to 7 | – | Ki (Kv11.1 (hERG) [3]; [7]): > 25000 nM
OC(c1ccc(F)c(-c2ncnc3cc(N4CCOCC4)sc23)c1)c1nccnc1Cl (single isomer, unassigned) [Example 24, (3-Chloro-pyrazin-2-yl)-[4-fluoro-3-(6-morpholin-4-yl-thieno-[3,2-d}pyrimidin-4-yl)-phenyl]methanol] | – | – | – | IC50 [1, 5]: < 500 nM; IC50 (DNA-PK; enzymatic, 5 μM ATP): < 3 nM; Ki (Kv11.1 (hERG) [3]; human, HEK293 cells stably transfected with the hERG gene, Ki [Kv1.11 hERG], patch clamp, HEK293 transfected with hERG gene): 15000 to 25000 nM
CC(C#N)Oc1ccc(C(O)c2cc(-c3ncnc4cc(N5CCOCC5)ccc34)c(F)cc2Cl)nn1 (stereo not drawn) [Example 101, 2-(6-{[2-Chloro-4-fluoro-5-(7-morpholin-4-yl-quinazolin-4-yl)-phenyl)hydroxy-methyl}pyridazin-3-yloxy)propionitrile] | – | – | – | IC50 [1, 5]: < 500 nM; IC50 (DNA-PK; enzymatic, 5 μM ATP): < 3 nM; Ki (Kv11.1 (hERG) [3]; [6]): 10000 to 15000 nM
